Species on record: Rattus norvegicus
Assay: Open TG-GATES - Regimen: Single
Assay type: toxicity, organism-based, Sprague-Dawley
Set-up: regimen Single, gender Male, age 6 weeks
Details: in vivo, po, 0 mg/kg, route gavage, dose level Control; for APTT / Bas / Eos / Fbg / Hb / Ht / Lym / MCH / MCHC / MCV / Mono / Neu / PT / Plat / RBC / Ret / WBC: tissue Blood; for A/G / ALP / ALT / AST / BUN / CRE / Ca / Cl / DBIL / GLC / IP / K / LDH / Na / PL / RALB / TBIL / TC / TG / TP / gamma-GTP: tissue Plasma

Cn1cc[nH]c1=S [METHIMAZOLE]
TERMINAL_BW (3 h): 207.3 g | APTT (3 h): 20.3 s | Bas (3 h): 0% | Eos (3 h): 0.4% | Fbg (3 h): 292.4 mg/dL | Hb (3 h): 13.6 g/dL | Ht (3 h): 38.8% | Lym (3 h): 82.4% | MCH (3 h): 22.3 pg | MCHC (3 h): 35.1% | MCV (3 h): 63.5 fL | Mono (3 h): 1.8% | Neu (3 h): 14.6% | PT (3 h): 15.8 s | Plat (3 h): 122.5 x10_4/uL | RBC (3 h): 612 x10_4/ul | Ret (3 h): 8.6% | WBC (3 h): 96.4 x10_2/uL | A/G (3 h): 1.3 | ALP (3 h): 1879.2 IU/L | ALT (3 h): 44.4 IU/L | AST (3 h): 75.8 IU/L | BUN (3 h): 14.4 mg/dL | CRE (3 h): 0.2 mg/dL | Ca (3 h): 10.6 mg/dL | Cl (3 h): 106.8 meq/L | DBIL (3 h): 0.002 mg/dL | GLC (3 h): 190.6 mg/dL | IP (3 h): 8.2 mg/dL | K (3 h): 4.1 meq/L | LDH (3 h): 186.8 IU/L | Na (3 h): 142 meq/L | PL (3 h): 143.6 mg/dL | RALB (3 h): 3 g/dL | TBIL (3 h): 0.02 mg/dL | TC (3 h): 84 mg/dL | TG (3 h): 55.6 mg/dL | TP (3 h): 5.4 g/dL | gamma-GTP (3 h): 1 IU/L | TERMINAL_BW (6 h): 210.9 g | APTT (6 h): 21.9 s | Bas (6 h): 0% | Eos (6 h): 0.8% | Fbg (6 h): 287.6 mg/dL | Hb (6 h): 13.5 g/dL | Ht (6 h): 38.4% | Lym (6 h): 82% | MCH (6 h): 22.3 pg | MCHC (6 h): 35.1% | MCV (6 h): 63.6 fL | Mono (6 h): 2.6% | Neu (6 h): 13.8% | PT (6 h): 16 s | Plat (6 h): 117.7 x10_4/uL | RBC (6 h): 605 x10_4/ul | Ret (6 h): 9.1% | WBC (6 h): 103.6 x10_2/uL | A/G (6 h): 1.2 | ALP (6 h): 1447.2 IU/L | ALT (6 h): 47.2 IU/L | AST (6 h): 77.4 IU/L | BUN (6 h): 10.8 mg/dL | CRE (6 h): 0.1 mg/dL | Ca (6 h): 10.6 mg/dL | Cl (6 h): 106.4 meq/L | DBIL (6 h): 0 mg/dL | GLC (6 h): 185 mg/dL | IP (6 h): 9.7 mg/dL | K (6 h): 4.4 meq/L | LDH (6 h): 228 IU/L | Na (6 h): 141.8 meq/L | PL (6 h): 141.6 mg/dL | RALB (6 h): 3 g/dL | TBIL (6 h): 0.022 mg/dL | TC (6 h): 79.4 mg/dL | TG (6 h): 54.2 mg/dL | TP (6 h): 5.4 g/dL | gamma-GTP (6 h): 1 IU/L | TERMINAL_BW (9 h): 203.8 g | APTT (9 h): 21.7 s | Bas (9 h): 0% | Eos (9 h): 0.8% | Fbg (9 h): 302.2 mg/dL | Hb (9 h): 13.4 g/dL | Ht (9 h): 38.7% | Lym (9 h): 81.6% | MCH (9 h): 22 pg | MCHC (9 h): 34.7% | MCV (9 h): 63.4 fL | Mono (9 h): 2.2% | Neu (9 h): 14.8% | PT (9 h): 16 s | Plat (9 h): 119.6 x10_4/uL | RBC (9 h): 610 x10_4/ul | Ret (9 h): 7.7% | WBC (9 h): 102.4 x10_2/uL | A/G (9 h): 1.1 | ALP (9 h): 1453.2 IU/L | ALT (9 h): 40.2 IU/L | AST (9 h): 68.8 IU/L | BUN (9 h): 11.4 mg/dL | CRE (9 h): 0.1 mg/dL | Ca (9 h): 10.4 mg/dL | Cl (9 h): 106 meq/L | DBIL (9 h): 0.002 mg/dL | GLC (9 h): 184.2 mg/dL | IP (9 h): 9.8 mg/dL | K (9 h): 4.1 meq/L | LDH (9 h): 181.8 IU/L | Na (9 h): 141.6 meq/L | PL (9 h): 136.8 mg/dL | RALB (9 h): 2.9 g/dL | TBIL (9 h): 0.014 mg/dL | TC (9 h): 73 mg/dL | TG (9 h): 75.6 mg/dL | TP (9 h): 5.5 g/dL | gamma-GTP (9 h): 1.2 IU/L | TERMINAL_BW (24 h): 225.5 g | APTT (24 h): 21.4 s | Bas (24 h): 0% | Eos (24 h): 1% | Fbg (24 h): 315 mg/dL | Hb (24 h): 13.7 g/dL | Ht (24 h): 38.8% | Lym (24 h): 78% | MCH (24 h): 22.1 pg | MCHC (24 h): 35.3% | MCV (24 h): 62.5 fL | Mono (24 h): 2.8% | Neu (24 h): 17.4% | PT (24 h): 15.7 s | Plat (24 h): 124.5 x10_4/uL | RBC (24 h): 621.4 x10_4/ul | Ret (24 h): 8.2% | WBC (24 h): 97.4 x10_2/uL | A/G (24 h): 1.1 | ALP (24 h): 1887.6 IU/L | ALT (24 h): 42.8 IU/L | AST (24 h): 69 IU/L | BUN (24 h): 15.8 mg/dL | CRE (24 h): 0.1 mg/dL | Ca (24 h): 11 mg/dL | Cl (24 h): 104.6 meq/L | DBIL (24 h): 0 mg/dL | GLC (24 h): 180.6 mg/dL | IP (24 h): 7.6 mg/dL | K (24 h): 4.2 meq/L | LDH (24 h): 183.2 IU/L | Na (24 h): 142.4 meq/L | PL (24 h): 156.6 mg/dL | RALB (24 h): 2.9 g/dL | TBIL (24 h): 0.004 mg/dL | TC (24 h): 77.8 mg/dL | TG (24 h): 120.4 mg/dL | TP (24 h): 5.6 g/dL | gamma-GTP (24 h): 1 IU/L
